# Values quoted from earlier work as cited in patent US7402323B2, “Compositions and methods for treating skin conditions” (AkPharma, Inc., priority 2002, dated 2008).
# Columns and labels:
# [1] = tested on: stratum corneum; details: normal thickness 14 cells
# [2] = tested on: cultured neurons and astrocytes; details: compared with control cultures or with cultures supplemented with calcium or glycerophosphate alone
Compound,stratum corneum thickness after treatment [1] [cells],solubility in water,number of cells in supplemented cultures [2]
CC1=C(/C=C/C(C)=C/C=C/C(C)=C/C(=O)O)C(C)(C)CCC1 [Retinoic acid],5,,
"O=P([O-])([O-])OCC(O)CO.[Ca+2] (stereo not drawn) [calcium glycerophosphate, 1,2,3-propanetriol, mono(dihydrogen phosphate) calcium salt (1:1)]",,highly soluble,more cells
